Type in all cases: cell-based, mouse
The test system of data set [1] is NIH/3T3 fibroblasts. Briefly: Cell viability, ethidium homodimer-1 dead assay after the experiment. The note with it: ethidium homodimer dead assay after each experiment. The text has this: The dead assay was taken from a Live/Dead Viability/Cytotoxicity kit from Molecular Probes. DiO and EthD show virtually no overlap in excitation/emission wavelengths, being 484/501 nm and 528/617 nm, respectively.

Data set [2] has as its system NIH/3T3 fibroblasts. Briefly: Fiber bundle subcellular imaging assay (residence time, 4.5 μm fibers). The note with it: 10 seconds per frame, top 30 fibers, 5-minute experiment, control 7.5±7.4 frames. The method, then: After labeling, the cells were allowed to settle and adhere to a fibronectin-coated fiber bundle that had been secured to a delta T4 dish (FIG. 1A). Fibers were placed into the delta T4 dish to maintain the temperature at 37° C. during experiments. […] After cells were allowed to adhere to the bundle's distal end, it was mounted on an inverted microscope stage, and excitation light was introduced through the proximal end of the fiber bundle. The fiber bundle is not connected directly to any part of the microscope, but remains within a centimeter of the objective. […] The resulting fluorescence emission light was then carried back through the fiber bundle to a CCD camera. […]
(§1) Cell migration was detected using two types of fiber bundles differing in the sizes of the individual fibers. […]
The data shown in FIG. 3C originate from an experiment in which three separate fibers were exposed to successively higher concentrations of nocodazole. […] Regions of the cell periphery can be difficult to distinguish from the background, because the fluorescence intensity gradually diminishes at the cell perimeter. […]
Timelapse recording was performed to determine the extent of cell migration or membrane motion across the fiber surface. […] Cell movement was recorded on delta T4 dishes (data not shown), as well as on Schott and Illumina fiber bundles. […] All movement was recorded using a fluorescein filter set. […]

Data set [3] relates to NIH/3T3 fibroblasts. Briefly: Fiber bundle whole-cell migration assay (residence time, 25 μm fibers). The note with it: ten minutes per frame, average of 30 fibers, ten hours, control 4.3±2.9 frames. The method, then: After labeling, the cells were allowed to settle and adhere to a fibronectin-coated fiber bundle that had been secured to a delta T4 dish (FIG. 1A). Fibers were placed into the delta T4 dish to maintain the temperature at 37° C. during experiments. […] After cells were allowed to adhere to the bundle's distal end, it was mounted on an inverted microscope stage, and excitation light was introduced through the proximal end of the fiber bundle. The fiber bundle is not connected directly to any part of the microscope, but remains within a centimeter of the objective. The excitation light was transferred through the fiber bundle to the distal end, where it excited the Vibrant DiO dye in the cell membrane (FIG. 1B). The resulting fluorescence emission light was then carried back through the fiber bundle to a CCD camera. […]
as §1
Migration is quantified as an increase in intensity at a particular fiber, as a fluorescently dyed cell moves across that fiber. […]
In this example, a threshold was assigned for each selected fiber at 75% of the maximum peak intensity for that particular fiber. […] The number of frames that the intensity stays above this threshold is counted for each fiber, and then averaged for all 30 fibers, giving an average residence time for the experiment (FIG. 2D). […]

Data on 1 compound can be found in patent publication US20080032324A1, “Apparatus and method for cell migration assays” (The Trustees Of Tufts College, priority 2004, published 2008).

Each structure is given as a SMILES string. Entries after “also recorded” stand apart in the source; their conditions may differ.

Turning to `COC(=O)Nc1nc2ccc(C(=O)c3cccs3)cc2[nH]1` [nocodazole, Nocodazole], in the data set on NIH/3T3 fibroblasts [1], the “cell viability after nocodazole treatment” value is given as “all cells were alive; also recorded: Cells were determined to be alive”. In addition, the average residence time in the data set with NIH/3T3 fibroblasts [2] (200 nM nocodazole) is reported as 13.2±8.0 frames; with NIH/3T3 fibroblasts [2] (300 nM nocodazole) it was 19.0±9.4 frames; with NIH/3T3 fibroblasts [3] (200 nM nocodazole), 18.8±10.3 frames; in the data set with NIH/3T3 fibroblasts [3] (300 nM nocodazole), 24.6±18.6 frames.
